These results are taken from patent US20030108951A1, “Use of diseases-associated gene” (priority 2000, published 2003).

Assay [1] concerns CARP gene. Briefly: CARP gene expression in primary neonatal rat cardiomyocytes, TaqMan quantification. The class given is cell-based. Conditions: serum-removed medium, added to 10 nM, 100 nM or 1000 nM, at maximum.
The subject of assay [2] is CARP gene. Briefly: CARP gene expression in H9c2 cells, TaqMan PCR. The class given is cell-based, rat. The note with it: serum-free DMEM, 10 nM or 100 nM, 4 hours and 8 hours, at maximum. Here is the method: H9c2 cell is a cell line derived from rat cardiomyocytes and was purchased from ATCC. The cells were incubated in DMEM medium supplemented with 10% calf serum. After recovery of cells using trypsin, the cells were inoculated on a 12-well plate in 100000 cells/well, followed by incubation in a 10% calf serum-containing DMEM medium for 12 hours. Thereafter, the medium was exchanged with a fresh serum-free DMEM medium, to which norepinephrine was supplemented in 10 nM or 100 nM, and the CARP gene expression level was quantitatively determined by TaqMan PCR with passage of 4 hours and 8 hours. Also, the copy number of […] gene (G3PDH) was quantitatively determined in a similar manner, and the copy number of CARP gene calculated was corrected by G3PDH. […] According to this system, the CARP gene expression can be quantitatively determined in response to various hypertrophic stimuli or in the apoptosis induction stage, and thus the system can be used for screening a CARP gene expression regulator. Moreover, by performing reporter gene assay using a promoter of the CARP gene, a low variation rate can be changed to a high variation rate to achieve high sensitization, thus enabling to high throughput screening.
For orientation: Quantitative PCR measures a nucleic acid by following its amplification.

As for `CC[C@H](C)[C@H](NC(=O)[C@H](CC(=O)O)NC(=O)[C@H](CC(C)C)NC(=O)[C@H](Cc1c[nH]cn1)NC(=O)[C@@H]1CSSC[C@H](N)C(=O)N[C@@H](CO)C(=O)N[C@H]2CSSC[C@H](NC(=O)[C@H](CCC(=O)O)NC(=O)[C@H](CCCCN)NC(=O)[C@H](CC(=O)O)NC(=O)[C@H](CCSC)NC(=O)[C@H](CC(C)C)NC(=O)[C@H](CO)NC(=O)[C@H](CO)NC2=O)C(=O)N[C@@H](C(C)C)C(=O)N[C@@H](Cc2ccc(O)cc2)C(=O)N[C@@H](Cc2ccccc2)C(=O)N1)C(=O)N[C@H](C(=O)N[C@@H](Cc1c[nH]c2ccccc12)C(=O)O)[C@@H](C)CC` [endothelin], the “increase of expression of the CARP gene” value in the assay on CARP gene [1] is reported as “about 3 times”.

Consider `NC[C@H](O)c1ccc(O)c(O)c1` [norepinephrine], for which the “increase of expression of the CARP gene” value with CARP gene [1] was “about 3 times”. In addition, the “increase of expression level of CARP gene (corrected by G3PDH)” value in the assay with CARP gene [2] is about 2 fold.
